Values of other authors as cited in patent publication US9625464B2, “Fluorescent probe for plasma cell identification and isolation, and plasma cell identification or isolation method using the probe” (NATIONAL UNIVERSITY CORPORATION UNIVERSITY OF TOYAMA, priority 2010, dated 2017).

Molecular target: ATP-sensitive K+ channel
Details: read-out: dissociation constant to ATP-sensitive K+ channel

For `COc1ccc(Cl)cc1C(=O)NCCc1ccc(S(=O)(=O)NC(=O)NC2CCCCC2)cc1` [glibenclamide], the Kd is given as 0.1 to 3.6 nM.
